The Kinase Knowledgebase extract (Sharma et al. 2016)

Target: MAPK14 (UniProt Q16539)
Assay: Inhibition of MAPK14 Kinase Activity

MAPK14, sequence (Q16539 whole entry, looked up): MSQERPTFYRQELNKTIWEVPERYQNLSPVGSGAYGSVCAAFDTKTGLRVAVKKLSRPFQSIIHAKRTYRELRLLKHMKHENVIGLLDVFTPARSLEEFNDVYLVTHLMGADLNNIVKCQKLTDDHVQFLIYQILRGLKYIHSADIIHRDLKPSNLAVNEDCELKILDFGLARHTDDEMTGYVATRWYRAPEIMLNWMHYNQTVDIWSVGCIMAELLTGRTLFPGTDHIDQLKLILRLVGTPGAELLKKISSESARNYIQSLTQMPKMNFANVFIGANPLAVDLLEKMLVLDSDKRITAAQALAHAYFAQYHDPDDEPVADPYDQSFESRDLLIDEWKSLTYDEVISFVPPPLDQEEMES

IC50, ≤ 5 µM:
CC(C)S(=O)(=O)n1c(N)nc2ccc(-c3nc(-c4ccc(OCCN5CCOCC5)c(F)c4)[nH]c3-c3ccccc3)cc21
CC(C)S(=O)(=O)n1c(N)nc2ccc(-c3c(-c4ccccc4)ncn3C3CCN(Cc4ccccc4)CC3)cc21
CN(C)S(=O)(=O)n1c(N)nc2ccc(-c3nc(-c4c(F)cccc4F)[nH]c3-c3ccccc3)cc21
CC(C)S(=O)(=O)n1c(N)nc2ccc(-c3nc[nH]c3-c3ccc(F)cc3)cc21
CCOC(=O)N1CCC(n2cnc(-c3ccccc3F)c2-c2ccc3nc(N)n(S(=O)(=O)C(C)C)c3c2)CC1
CC(C)CN1CCC(c2nc(-c3ccc4nc(N)n(S(=O)(=O)C(C)C)c4c3)c(-c3ccccc3)[nH]2)CC1
CC(C)S(=O)(=O)n1c(N)nc2ccc(-c3nc(-c4ccc(OCCN(C)C)cc4)[nH]c3-c3ccccc3)cc21
CCc1nc(-c2ccc3nc(N)n(S(=O)(=O)C(C)C)c3c2)c(-c2ccc(F)cc2)[nH]1
CC(C)c1nc(-c2ccc3nc(N)n(S(=O)(=O)C(C)C)c3c2)c(-c2ccc(F)cc2)[nH]1
CC(C)S(=O)(=O)n1c(N)nc2ccc(-c3c(-c4ccc(F)cc4)ncn3CCN3CCOCC3)cc21
CC(C)S(=O)(=O)n1c(N)nc2ccc(-c3c(-c4ccc(F)cc4F)ncn3C)cc21
CC(C)S(=O)(=O)n1c(N)nc2ccc(-c3c(-c4ccccc4F)nc(-c4ccc(F)cc4F)n3C3CC3)cc21
CC(C)S(=O)(=O)n1c(N)nc2ccc(-c3nc(-c4ccc([N+](=O)[O-])s4)[nH]c3-c3ccccc3)cc21
CC(C)S(=O)(=O)n1c(N)nc2ccc(-c3c(-c4ccc(F)cc4)ncn3C3CCCC3)cc21
CC(C)S(=O)(=O)n1c(N)nc2ccc(-c3nc(C(C)(C)C)[nH]c3-c3ccccc3)cc21
CC(C)S(=O)(=O)n1c(N)nc2ccc(-c3c(-c4ccc(F)cc4)ncn3C3CCN(Cc4ccccc4)CC3)cc21
Cc1ccsc1-c1nc(-c2ccc3nc(N)n(S(=O)(=O)C(C)C)c3c2)c(-c2ccccc2)[nH]1
CC(C)S(=O)(=O)n1c(N)nc2ccc(-c3nc(-c4ccc(OCCN5CCCC5)c(F)c4)[nH]c3-c3ccccc3)cc21
CC(C)S(=O)(=O)n1c(N)nc2ccc(-c3c(-c4ccccc4)ncn3Cc3ccc(F)cc3F)cc21
CC(C)S(=O)(=O)n1c(N)nc2ccc(-c3c(-c4ccccc4)ncn3C3CCCCC3)cc21
Cc1cc(-c2ccc3nc(N)n(S(=O)(=O)C(C)C)c3c2)n(-c2ccccc2)n1
CC(C)S(=O)(=O)n1c(N)nc2ccc(-c3c(-c4ccccc4F)ncn3Cc3cccnc3)cc21
Nc1nc2ccc(-c3nc(-c4cccs4)[nH]c3-c3ccccc3)cc2[nH]1
CC(C)S(=O)(=O)n1c(N)nc2ccc(-c3c(-c4ccccc4)ncn3C3CC(C)(C)NC(C)(C)C3)cc21
CC(C)S(=O)(=O)n1c(N)nc2ccc(-c3c(-c4ccccc4F)nc(Br)n3C3CC3)cc21
Nc1ccccc1Cc1nc2ccc(-c3[nH]cnc3-c3ccccc3)cc2[nH]1
CC(C)S(=O)(=O)n1c(N)nc2ccc(-c3nc(-c4cccs4)[nH]c3-c3cccc(C(F)(F)F)c3)cc21
CC(C)S(=O)(=O)n1c(N)nc2ccc(-c3c(-c4ccccc4)ncn3CCO)cc21
CC(C)S(=O)(=O)n1c(N)nc2ccc(-c3nc(-c4c(F)cccc4F)n(C)c3-c3ccccc3)cc21
CC(C)S(=O)(=O)n1c(N)nc2ccc(-c3nc(-c4cccc(Cl)c4)[nH]c3-c3ccccc3)cc21
CC(C)S(=O)(=O)n1c(N)nc2ccc(-c3nc(CN(C)CCN(C)C)[nH]c3-c3ccccc3)cc21
CCn1cnc(-c2ccccc2)c1-c1ccc2nc(N)n(S(=O)(=O)C(C)C)c2c1
CC(C)S(=O)(=O)n1c(N)nc2ccc(-c3nc(CN4CCOCC4)[nH]c3-c3ccccc3)cc21
NCCc1nc2ccc(-c3nc(-c4c(F)cccc4F)[nH]c3-c3ccccc3)cc2[nH]1
Cc1cccn2c(-c3ccc4nc(N)n(S(=O)(=O)C(C)C)c4c3)c(-c3ccccc3)nc12
CC(C)S(=O)(=O)n1c(N)nc2ccc(-c3c(-c4ccccc4)nc4ccccn34)cc21
CC(C)S(=O)(=O)n1c(N)nc2ccc(-c3nc(-c4c(F)cccc4Cl)[nH]c3-c3ccc(F)cc3)cc21
Cc1ccc(-c2[nH]c(-c3ccc(F)cc3)nc2-c2ccc3nc(N)n(S(=O)(=O)C(C)C)c3c2)cc1
COc1ccc(Cn2c(CO)nc(-c3ccccc3)c2-c2ccc3nc(N)n(S(=O)(=O)C(C)C)c3c2)cc1
CC(C)S(=O)(=O)n1c(N)nc2ccc(-c3nc(-c4ccc(N)s4)[nH]c3-c3ccccc3)cc21
CC(C)S(=O)(=O)n1c(N)nc2ccc(-c3c(-c4ccccc4)ncn3C)cc21
CC(C)S(=O)(=O)n1c(N)nc2ccc(-c3nc(CCC(=O)O)[nH]c3-c3ccccc3)cc21
CC(C)S(=O)(=O)n1c(N)nc2ccc(-c3c(-c4ccccc4F)nc(-c4ccc(Cl)cc4)n3C3CC3)cc21
CC(C)S(=O)(=O)n1c(N)nc2ccc(-c3c(-c4ccccc4)ncn3Cc3cccnc3)cc21
CCc1nc(-c2ccccc2F)c(-c2ccc3nc(N)n(S(=O)(=O)C(C)C)c3c2)n1C1CC1
COc1ccc(-c2nc(-c3ccc4nc(N)n(S(=O)(=O)C(C)C)c4c3)c(-c3ccccc3)[nH]2)cc1
CC(C)S(=O)(=O)n1c(N)nc2ccc(-c3nc(-c4c(F)cc(OCCN5CCCC5)cc4F)[nH]c3-c3ccccc3)cc21
CC(C)S(=O)(=O)n1c(N)nc2ccc(-c3nc(C4CCCCC4)[nH]c3-c3ccccc3)cc21
CC(C)S(=O)(=O)n1c(N)nc2ccc(-c3nc(-c4c(Cl)cccc4Cl)[nH]c3-c3ccccc3)cc21
CC(C)S(=O)(=O)n1c(N)nc2ccc(-c3nc(-c4ccc5c(c4)OCO5)[nH]c3-c3ccccc3)cc21
CC(C)S(=O)(=O)n1c(N)nc2ccc(-c3nc[nH]c3-c3ccc(F)cc3F)cc21
CC(C)S(=O)(=O)n1c(N)nc2ccc(-c3c(-c4cccc(F)c4F)ncn3C)cc21
Nc1nc2ccc(-c3nc[nH]c3-c3ccccc3)cc2[nH]1
CC(C)S(=O)(=O)n1c(N)nc2ccc(-c3nc(-c4ccc([N+](=O)[O-])cc4)[nH]c3-c3ccccc3)cc21
CC(C)S(=O)(=O)n1c(N)nc2ccc(-c3c(-c4ccccc4)nc(-c4cccs4)n3C)cc21
CC(C)S(=O)(=O)n1c(N)nc2ccc(-c3nc(-c4ccc(N)cc4)[nH]c3-c3ccccc3)cc21
CC(C)S(=O)(=O)n1c(N)nc2ccc(-c3nc(-c4ccccc4F)[nH]c3-c3ccccc3)cc21
CC(C)S(=O)(=O)n1c(N)nc2ccc(-c3c(-c4ccccc4)ncn3C3CCNCC3)cc21
CC(C)S(=O)(=O)n1c(N)nc2ccc(-c3nc(-c4ccccc4OC(F)(F)F)[nH]c3-c3ccccc3)cc21
Cc1nc(-c2ccc3nc(N)n(S(=O)(=O)C(C)C)c3c2)c(-c2ccc(F)cc2F)n1Cc1ccccc1
CC(C)S(=O)(=O)n1c(N)nc2ccc(-c3nc(-c4ccccc4N4CCN(C)CC4)[nH]c3-c3ccccc3)cc21
CC(C)S(=O)(=O)n1c(N)nc2ccc(-c3c(-c4ccccc4)ncn3CCCc3ccccc3)cc21
CC(C)S(=O)(=O)n1c(N)nc2ccc(-c3nc(-c4ccc(Cl)s4)[nH]c3-c3ccccc3)cc21
CC(C)S(=O)(=O)n1c(N)nc2ccc(-c3nc[nH]c3-c3cccc(C(F)(F)F)c3)cc21
CCc1ccc(-c2nc(-c3ccc4nc(N)n(S(=O)(=O)C(C)C)c4c3)c(-c3ccc(F)cc3)[nH]2)s1
CC(C)S(=O)(=O)n1c(N)nc2ccc(-c3c(-c4ccccc4)ncn3C3CCC(=O)CC3)cc21
CC(C)n1cnc(-c2ccccc2)c1-c1ccc2nc(N)n(S(=O)(=O)C(C)C)c2c1
CC(C)S(=O)(=O)n1c(N)nc2ccc(-c3nc[nH]c3-c3ccccc3)cc21
CC(C)S(=O)(=O)n1c(N)nc2ccc(-c3nc(-c4ccc(Cl)s4)[nH]c3-c3ccc(F)cc3)cc21
CC(C)S(=O)(=O)n1c(N)nc2ccc(-c3nc[nH]c3-c3cccc(F)c3F)cc21
CC(C)S(=O)(=O)n1c(N)nc2ccc(-c3nc(-c4c(F)cccc4Cl)[nH]c3-c3ccccc3)cc21
CC(C)S(=O)(=O)n1c(N)nc2ccc(-c3nc(-c4cccc(F)c4F)[nH]c3-c3ccccc3)cc21
Cc1cccc(-c2[nH]c(C)nc2-c2ccc3nc(N)n(S(=O)(=O)C(C)C)c3c2)c1
CC(C)S(=O)(=O)n1c(N)nc2ccc(-c3nc(C4CCCCC4)[nH]c3-c3ccc(F)cc3)cc21
CC(C)S(=O)(=O)n1c(N)nc2ccc(-c3nc(-c4cccs4)[nH]c3-c3ccc(F)cc3)cc21
CC(C)S(=O)(=O)n1c(N)nc2ccc(-c3c(-c4ccsc4)ncn3[C@H]3CC[C@H](O)CC3)cc21
CC(C)S(=O)(=O)n1c(N)nc2ccc(-c3c(-c4ccccc4F)ncn3[C@H]3CC[C@H](O)CC3)cc21
CC(C)S(=O)(=O)n1c(N)nc2ccc(-c3c(-c4ccccc4)ncn3Cc3ccc(F)cc3)cc21
CC(C)S(=O)(=O)n1c(N)nc2ccc(-c3[nH]n(-c4ccccc4)c(=O)c3-c3ccc(F)cc3)cc21
CC(C)S(=O)(=O)n1c(N)nc2ccc(C3C(c4ccccc4)N=C4Sc5ccccc5N43)cc21 (stereo not given)
CC(C)S(=O)(=O)n1c(N)nc2ccc(-c3cn[nH]c3-c3ccccc3)cc21
CC(C)S(=O)(=O)n1c(N)nc2ccc(-c3c(-c4ccc(F)cc4F)ncn3C3CCCCC3)cc21
CC(C)S(=O)(=O)n1c(N)nc2ccc(-c3nc(-c4ccc(OC(F)(F)F)cc4)[nH]c3-c3ccccc3)cc21
CC(C)S(=O)(=O)n1c(N)nc2ccc(-c3c(-c4ccc(F)cc4)ncn3CC3CC3)cc21
CC(C)S(=O)(=O)n1c(N)nc2ccc(-c3c(-c4ccccc4)ncn3[C@@H]3CCCC[C@H]3O)cc21
